According to patent publication US20230303540A1 (Merck Sharp & Dohme LLC, priority 2020, published 2023):

Target: GST-tagged truncated human mutant G2019S LRRK2 (Homo sapiens, UniProt Q5S007, G2019S)
Experiment: LRRK2 G2019S Km ATP LanthaScreen assay
Format: biochemical
Details: 134 μM ATP (Km ATP), LRRKtide substrate, mean IC50 values; read-out: LRRK2 pIC50 (converted)
In short: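 LanthaScreen TR-FRET read with fluorescein-LRRKtide and 134 μM ATP (Km) in Tris pH 8.5/10 mM MgCl2 buffer. The enzyme was preincubated 15 min with compound at room temperature, and the reaction ran 90 min at ambient temperature. Stopped with EDTA plus Tb anti-phospho-LRRKtide antibody; the 520/495 nm ratio gave a 4-parameter logistic IC50, mean of several runs.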

SMILES | IC50
CN1CCN(c2cc3nc(Nc4cnn(C5(C)CC5)c4Cl)ncc3cc2Cl)CC1=O [Ex-4.44, 4-(6-chloro-2-{[5-chloro-1-(1-methylcyclopropyl)-1H-pyrazol-4-yl]amino}quinazolin-7-yl)-1-methylpiperazin-2-one] | 20 nM
Cc1c(Nc2ncc3cc(Cl)c(N4CCN(C5CCCC5C#N)CC4)cc3n2)cnn1C1CC1 (single isomer, unassigned) [Ex-1.6, (3S,4S or 3R,4R)-2-(4-{6-chloro-2-[(1-cyclopropyl-5-methyl-1H-pyrazol-4-yl)amino]quinazolin-7-yl}piperazin-1-yl)cyclopentane-1-carbonitrile] | 1.89 nM
CC1(n2ncc(Nc3ncc4cc(Cl)c(N5CCN(C6COC6)CC5)cc4n3)c2Cl)CC1 [Ex-3.22, 6-chloro-N-[5-chloro-1-(1-methylcyclopropyl)-1H-pyrazol-4-yl]-7-[4-(oxetan-3-yl)piperazin-1-yl]quinazolin-2-amine] | 0.954 nM
CC1(N2CCN(c3cc4nc(Nc5ccn(CC(F)(F)F)n5)ncc4cc3Cl)CC2)COC1 [Ex-4.63, 6-chloro-7-[4-(3-methyloxetan-3-yl)piperazin-1-yl]-N-[1-(2,2,2-trifluoroethyl)-1H-pyrazol-3-yl]quinazolin-2-amine] | 28.3 nM
CC1CCC12CN(c1cc3nc(Nc4cnn(C5(C)CC5)c4Cl)ncc3cc1Cl)C2 (single isomer, unassigned) [Ex-4.26, (R) or (S) 6-chloro-N-[5-chloro-1-(1-methylcyclopropyl)-1H-pyrazol-4-yl]-7-(5-methyl-2-azaspiro[3.3]heptan-2-yl)quinazolin-2-amine] | 9.09 nM
C[C@H]1COC(=O)N1c1ccc2cnc(Nc3cn(C)nc3C(F)F)nc2c1 [Ex-8.12, (4S)-3-(2-{[3-(difluoromethyl)-1-methyl-1H-pyrazol-4-yl]amino}quinazolin-7-yl)-4-methyl-1,3-oxazolidin-2-one] | 1.63 nM
